System: cardiac gene expression
Assay: Microarray analysis of cardiac gene expression (GeneChip Mouse Genome 430 2.0)
Assay type: in vivo, mice
Method: Microarray Sample Preparation and Analysis. Animal hearts were rapidly removed, and the atria and right ventricles were cut and immediately plunged into TRIzol Reagent (Life Technologies). Total RNA was isolated following the manufacturer's instructions, purified by phenol-chloroform extraction and then ethanol precipitation, and 20 μg further processed for microarray analysis. Briefly, cDNA synthesis, in vitro transcription, and labeling and fragmentation to produce the oligonucleotide probes were performed as instructed by the GeneChip manufacturer (Affymetrix). The probes were first hybridized to a test array (Affymetrix) and then to the GeneChip Mouse Genome 430 2.0 Array, using the GeneChip Hybridization Oven 640. The chips were washed in a GeneChip Fluidics Station 450 (Affymetrix), and the results were visualized with a GeneChip G7 scanner (Affymetrix). RMA normalization, pairwise comparisons, Student's t test and Benjamini and Hochberg correction were subsequently performed using GeneSifter (VizX Labs, Seattle, Wash.) and Spotfire DecisionSite 8.3 (Spotfire, Inc., Somerville, Mass.).
Effects on Gene Expression Profile. […] One mouse heart was used for each array, and was performed in triplicate, generating a total of 12 arrays. GeneSifter was used to perform RMA normalization, pairwise comparisons of averaged signal intensity values, and Student's t-test with Benjamini and Hochberg correction, and Spotfire was used to perform pairwise comparisons. […] Additionally, genes that were altered between any two N or cardiac hypertrophy samples were removed, as these alterations most likely represented normal variations between mice.

[1] = CH vs drug-treated isoproterenol mice
[2] = heart, drug + isoproterenol vs isoproterenol only
[3] = mouse heart, vs isoproterenol only (CH), CH vs normal 2.1
[4] = mouse heart, vs isoproterenol only (CH), CH vs normal 2.2
[5] = mouse heart, vs isoproterenol only (CH), CH vs normal 2.6
[6] = mouse heart, vs isoproterenol only (CH), CH vs normal 2.7
[7] = mouse heart, vs isoproterenol only (CH), CH vs normal 2.9
[8] = mouse heart, vs isoproterenol only (CH), CH vs normal 3.2
[9] = mouse heart, vs isoproterenol only (CH), CH vs normal 3.3
[10] = mouse heart, vs isoproterenol only (CH), CH vs normal 3.7
[11] = mouse heart, vs isoproterenol only (CH), CH vs normal 4.9

NC(=O)N1c2ccccc2C=Cc2ccccc21 [carbamazepine]
Number of Altered Genes, Average FC (1.5-fold) [1]: 709 | Number of Altered Genes, Average FC (2-fold) [1]: 1 | Number of Altered Genes, Minus disease variability [1]: 1 | Number of Altered Genes, Minus natural variability [1]: 1 | Number of Altered Genes, Reproducible [1]: 1 | Number of Altered Genes, Student's t test [1]: 306 | Number of Altered Genes, Correction (CH vs drug-treated isoproterenol mice, Benjamini and Hochberg): 1 | Number of Altered Genes, Disease-specific (CH vs drug-treated isoproterenol mice, of 779 genes altered N vs CH, altered in the reverse direction): 1 | Cytokine inducible SH2-containing protein 3 (Socs3), Microarray FC [2]: −2.4 FC | GATA binding protein 4 (Gata4), Microarray FC [2]: 2.1 FC | Lipocalin 2 (Lcn2), Microarray FC [2]: −1.6 FC | NADPH oxidase 4 (Nox4), Microarray FC [2]: −1.9 FC | Oncostatin receptor (Osmr), Microarray FC [2]: −1.7 FC | SET and MYND domain containing 1 (Smyd1), Microarray FC [2]: 1.7 FC | Serine protease inhibitor 2-2 (Spi2-2) (Serpin3n), Microarray FC [2]: −2.3 FC | FC Procollagen, type IV, alpha 1 (Col4a1), AW536690 (mouse heart, vs isoproterenol only (CH), CH vs normal 1.6): −1.8 fold | FC Fatty acid binding protein 4, adipocyte (Fabp4), BC002148 (mouse heart, vs isoproterenol only (CH), CH vs normal 1.8): −1.6 fold | FC Adenosine deaminase (Ada), NM_007398 [3]: −2.2 fold | FC EST, AV032095 [3]: −1.6 fold | FC EST, BE630073 [3]: −1.6 fold | FC Amine oxidase, copper containing 3 (Aoc3), NM_009675 [4]: −1.8 fold | FC CD14 antigen (CD14), NM_009841 [4]: −1.6 fold | FC Flavin containing monooxygenase 1 (Fmo1), BC011229 [4]: −1.6 fold | FC cDNA, BG075321 [4]: −1.6 fold | FC A disintegrin-like and metallopeptidase (reprolysin type) with thrombospondin (ADAMTS)-like 2 (Adamtsl2), AK020831 (mouse heart, vs isoproterenol only (CH), CH vs normal 2.3): −1.6 fold | FC Purine-nucleoside phosphorylase (Pnp), BC003788 (mouse heart, vs isoproterenol only (CH), CH vs normal 2.4): −1.7 fold | FC ESTs, AI447357 (mouse heart, vs isoproterenol only (CH), CH vs normal 2.5): −1.9 fold | FC Dipeptidase 1 (Dpep1), NM_007876 [5]: −1.6 fold | FC Fc fragment of IgG, low affinity IIIa, receptor (Fcrl3), BC027310 [5]: −1.6 fold | FC cDNA, AW552579 [5]: −1.7 fold | FC G7e protein, NM_033075 [6]: −1.6 fold | FC Mitogen activated protein kinase kinase kinase 8 (Map3k8), NM_007746 [6]: −1.7 fold | FC cDNA, BC019553 [6]: −2.2 fold | FC Decorin (Dcn), AV321547 [7]: −1.6 fold | FC Glycoprotein (transmembrane) nmb (Gpnmb), NM_053110 [7]: −1.5 fold | FC C-type lectin domain family 1, member a (Clec1a), BB035924 (mouse heart, vs isoproterenol only (CH), CH vs normal 3.1): −1.6 fold | FC CUB and zona pellucida-like domains 1 (Cuzd1), NM_008411 [8]: −1.5 fold | FC G7e protein, BC027314 [8]: −2.2 fold | FC Serine (or cysteine) peptidase inhibitor, clade A, member 3G (Serpina3g), BC002065 [8]: −1.7 fold | FC cDNA, BG297038 [8]: −2.9 fold | FC Pyruvate dehydrogenase kinase 4 (Pdk4), NM_013743 [9]: 1.7 fold | FC cDNA, AK012898 [9]: −2.0 fold | FC TRAF2 and K interacting kinase (Tnik), AI117633 (mouse heart, vs isoproterenol only (CH), CH vs normal 3.4): −1.7 fold | FC Interleukin-1 receptor-associated kinase 3 (Irak3), AV228493 (mouse heart, vs isoproterenol only (CH), CH vs normal 3.5): −1.6 fold | FC Mcf.2 transforming sequee-like (Mcf21), AV293368 [10]: −1.5 fold | FC cDNA, BE956710 [10]: −1.7 fold | FC Lipopolysaccharide binding protein (Lbp), NM_008489 (mouse heart, vs isoproterenol only (CH), CH vs normal 3.8): −1.8 fold | FC Nuclear factor of kappa light polypeptide gene enhaer in B-cells inhibitor, zeta (Nfkbiz), NM_030612 (mouse heart, vs isoproterenol only (CH), CH vs normal 3.9): −1.6 fold | FC Colony stimulating factor 2 receptor, beta 2, low-affinity (granulocyte-macrophage) (Csf2rb2), NM_007781 (mouse heart, vs isoproterenol only (CH), CH vs normal 4.1): −1.8 fold | FC NADPH oxidase 4 (Nox4), BC021378 (mouse heart, vs isoproterenol only (CH), CH vs normal 4.3): −1.9 fold | FC Calcium-sensitive chloride conductae protein-1 (Clca1), AF047838 (mouse heart, vs isoproterenol only (CH), CH vs normal 4.4): −1.8 fold | FC cDNA, AK008807 (mouse heart, vs isoproterenol only (CH), CH vs normal 4.5): −1.7 fold | FC Serum amyloid A 3 (Saa3), NM_011315 (mouse heart, vs isoproterenol only (CH), CH vs normal 4.7): −2.0 fold | FC Caer related gene-liver 1 (CRG-L1), AF282864 [11]: −1.5 fold | FC Calcium/calmodulin-dependent protein kinase II, beta (Camk2b), BG862223 [11]: −2.8 fold | FC Oostatin receptor (Osmr), NM_011019 (mouse heart, vs isoproterenol only (CH), CH vs normal 5.1): −1.7 fold | FC Cytokine inducible SH2-containing protein 3 (Socs3), BB241535 (mouse heart, vs isoproterenol only (CH), CH vs normal 6.0): −2.3 fold

— US20080305186A1, “Method and Composition for the Treatment of Cardiac Hypertrophy” (BOARD OF REGENTS, THE UNIVERSITY OF TEXAS SYSTEM, priority 2007, published 2008)
